In US10408836B2 (priority 2013, dated 2019):

What was measured:
NanA of S. pneumoniae = format: biochemical; conditions: pH 7
NA of influenza = format: biochemical; conditions: pH 7
[1] = molecular target: A/Florida/21/08 (H1N1/08-R) neuraminidase (Influenza A virus, UniProt G3LYR2); conditions: pH 6, 25000 µM
[2] = molecular target: B/Memphis/20/96 (Vict/96-R) neuraminidase (Influenza B virus, UniProt C7FPS7); conditions: pH 7, 25000 µM
[3] = molecular target: B/Brisbane/60/08 (Vict/06-S) neuraminidase (Influenza B virus, UniProt C0LT34); test: biochemical; conditions: pH 7, read-out: % of max NA act. + EDTA (pH)
[4] = molecular target: A/Brisbane/10/07-Like (H3N2/07-S) neuraminidase (Influenza A virus, UniProt A8W8R2); format: biochemical; conditions: pH 7, 25000 µM
[5] = molecular target: B/Florida/04/06 (Yama/08-S) neuraminidase (Influenza B virus, UniProt J7JZU5); test: biochemical; conditions: pH 7, read-out: % of max NA act. + EDTA (pH)
[6] = molecular target: A/Texas/12/07 (H3N2/07-R) neuraminidase (Influenza A virus, UniProt D1FVK3)
[7] = molecular target: Parainfluenza virus Type 2 NA (Human parainfluenza 2 virus, UniProt P25465); conditions: pH 5
[8] = molecular target: Recombinant N1 protein A/California/04/09 (N1pdm/09-S) (Influenza A virus (H1N1), UniProt C3W5S3); test: biochemical; conditions: pH 6, read-out: % of max NA act. + EDTA (pH)
[9] = molecular target: S. pneumoniae ATCC 49619 (Strep 4) NanA (Streptococcus pneumoniae, UniProt P62575); conditions: pH 7
[10] = molecular target: A/California/07/09 (H1N1pdm/09-S) neuraminidase (Influenza A virus, UniProt C3W6G3); test: biochemical; conditions: pH 6, read-out: % of max NA act. + EDTA (pH)
[11] = molecular target: Recombinant N1 protein A/California/04/09 (N1pdm/09-R) (Influenza A virus (H1N1), UniProt C3W5S3); conditions: pH 6, 25000 µM
[12] = molecular target: A/North Carolina/39/09 (H1N1pdm/09-R) neuraminidase (Influenza A virus, UniProt C3W6G3); conditions: pH 6, 25000 µM
[13] = molecular target: S. pneumoniae ATCC 6305 (Strep 6) NanA (Streptococcus pneumoniae, UniProt P62575); conditions: pH 7
[14] = molecular target: Recombinant N1 protein A/Anhui/01/05 (N1/05-S) (Influenza A virus, UniProt D0PQ82); test: biochemical; conditions: pH 6, read-out: % of max NA act. + EDTA (pH)
[15] = molecular target: A/Brisbane/59/07-Like (H1N1/07-R) neuraminidase (Influenza A virus, UniProt D5F1R0); conditions: pH 6, 25000 µM
influenza virus = format: binding
H3N2/07-R = format: binding, influenza A

In the case of `O=S(=O)(O)CCCNC1CCCCC1` [CAPS, N-cyclohexyl-3-aminopropanesulfonic acid], the “NanA inhibition by sulfonic acid-containing buffer” value (NanA of S. pneumoniae) is reported as “susceptibility to CHES and CAPS inhibition”.

With `O=S(=O)(O)CCNC1CCCCC1` [CHES, N-cyclohexyl-2-aminoethanesulfonic acid] the “NanA activity of S. pneumoniae in presence of buffer” value (NanA of S. pneumoniae) was “severely reduced”, the “NanA inhibition by sulfonic acid-containing buffer” value (NanA of S. pneumoniae) was “susceptibility to CHES and CAPS inhibition” and the “NA enzymatic activity of influenza in presence of buffer” value (NA of influenza) was “substantially resistant”.

`O=C(O)CN(CCN(CC(=O)O)CC(=O)O)CC(=O)O` [EDTA, ethylenediaminetetraacetic acid] was tested, and the “% of max NA act. + EDTA (pH)” value [1] was 36%, the “% of max NA act. + EDTA (pH)” value [2] was 25% and the activity at 25000 µM [3] was 92%. The “% of max NA act. + EDTA (pH)” value [4] was 50%, the activity at 25000 µM [5] was 88% and the “% of max NA act. + EDTA (pH)” value ([6]; pH 7, 25000 µM) was 61%. The “% of max NA act. + EDTA (pH)” value [7] was 27%, the activity at 25000 µM [8] was 94% and the “% of max NA act. + EDTA (pH)” value [9] was 108%. For the same molecule, the activity at 25000 µM [10] was 44%, the “% of max NA act. + EDTA (pH)” value [11] was 94% and the “% of max NA act. + EDTA (pH)” value [12] was 63%. The “% of max NA act. + EDTA (pH)” value [13] was 112%, the activity at 25000 µM [14] was 43% and the “% of max NA act. + EDTA (pH)” value [15] was 54%.

Molecule `CC(=O)N[C@H]1[C@H]([C@H](O)[C@H](O)CO)OC(C(=O)O)=C[C@@H]1N=C(N)N` [Zan, Zanamivir] has an IC50 [6] of 2.6 nM.

With “MBL: mannose-binding lectin, recombinant host protein used as capturing agent” the “limit of detection: virus dilution at which virus is captured” value (influenza virus) was 270-450 fold dilution, the “viral capture, ranking of receptors” value (influenza virus) was “best capturing factor among all mannose binding receptors” and the “limit of detection: virus dilution” value (H3N2/07-R) was 450 fold dilution.

B1: Fetuin: highly sialylated protein isolated from bovine serum, used as capturing agent (protein, UniProt P12763 19-359, looked up)
Alpha-2-HS-glycoprotein: IPLDPVAGYKEPACDDPDTEQAALAAVDYINKHLPRGYKHTLNQIDSVKVWPRRPTGEVYDIEIDTLETTCHVLDPTPLANCSVRQQTQHAVEGDCDIHVLKQDGQFSVLFTKCDSSPDSAEDVRKLCPDCPLLAPLNDSRVVHAVEVALATFNAESNGSYLQLVEISRAQFVPLPVSVSVEFAVAATDCIAKEVVDPTKCNLLAEKQYGFCKGSVIQKALGGEDVRVTCTLFQTQPVIPQPQPDGAEAEAPSAVPDAAGPTPSAAGPPVASVVVGPSVVAVPLPLHRAHYDLRHTFSGVASVESSSGEAFHVGKTPIVGQPSIPGGPVRLCPGRIRYFKI
With B1 the “limit of detection: virus dilution at which virus is captured” value (influenza virus) was 150-450 fold dilution and the “limit of detection: virus dilution” value (H3N2/07-R) was 30 fold dilution.
